Laboratory results reported in US20030232986A1, “Inhibitors of caspases” (Vertex Pharmaceuticals Incorporated, priority 1998, published 2003).
Read-outs that look alike come from different tables or passages of the source. Where a SMILES comes first, the peptide text is derived from it. [ ]: non-standard residue; d: D form. The star is where a group is joined. Tle = CC(C)(C)[C@H](N)C(=O)O; Bz = O=C(c1ccccc1)*

Legend:
Caspase-1 = target: T1, Caspase-1 (Homo sapiens, UniProt P29466); experiment: Caspase-1 enzyme inhibition (Ki); assay type: biochemical
T1 sequence (P29466 120-297 limits assumed): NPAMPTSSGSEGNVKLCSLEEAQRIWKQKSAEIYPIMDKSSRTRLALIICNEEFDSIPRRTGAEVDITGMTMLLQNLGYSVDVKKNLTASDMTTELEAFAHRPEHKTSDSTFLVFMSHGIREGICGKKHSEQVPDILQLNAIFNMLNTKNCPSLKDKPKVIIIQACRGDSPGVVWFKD
T1 sequence (P29466 317-404 limits assumed): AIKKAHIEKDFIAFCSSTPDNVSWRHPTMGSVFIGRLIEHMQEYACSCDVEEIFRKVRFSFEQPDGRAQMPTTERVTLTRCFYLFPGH
Method: Ki values for test compounds with the various caspases were obtained by the method of Margolin et al. (J. Biol. Chem., 272 pp. 7223-7228 (1997)). Assays were performed in 10 mM Tris (Sigma Corp, St Louis Mo.) pH 7.5, 1 mM Dithiothreitol (DTT, Research Organic INC, Cleveland, Ohio) and 0.1% CHAPS (Pierce, Rockford Ill.) at 37° C. For caspase-3, a solution of 8% glycerol was added to the assay buffer to improve enzyme stability. A 65 μL aliquot of the assay buffer and 5 μL aliquot of the appropriate dilutions of inhibitor in DMSO where pipetted into a 96 well plate, treated with 10 μL of caspase, then diluted in assay buffer (0.5-40 nM active protein by active site titration). A control containing DMSO but no compound was included for each determination. The plates were then incubated for 15 minutes at 37° C., before addition of the appropriate substrate (20 μL, final concentration 1-4×KM, final assay volume 100 μL) to initiate the reaction. Reaction rates were measured at 37° C. either by following the time dependant increase in absorbance at 405 nm (for the pNA substrates) or in fluorescence (Ex 390, Em 460) (for the AMC substrates). The rates obtained were plotted against inhibitor concentration and the data fit to the Morrison tight-binding equation for competitive inhibitors (Morrison, J. F., Biochem. Biophys. Acta, 185 pp. 269-286 (1969)). The substrates used for the individual assays were as follows:
Caspase-1 Suc-YVAD-pNA (Bachem, King of Prussia, Pa.) (final concentration in the assay 80 μM),

[1] = test system: Human Peripheral Blood Mononuclear Cells (PBMC), mature IL-1β; experiment: PBMC cell assay: IL-1β assay with human peripheral blood mononuclear cells; assay type: cell-based; details: LPS-stimulated human PBMC, mature IL-1β in supernatant by ELISA
Text: IL-1β Assay with a Mixed Population of Human Peripheral Blood Mononuclear Cells (PBMC) or Enriched Adherent Mononuclear Cells
Processing of pre-IL-1β by ICE can be measured in cell culture using a variety of cell sources. Human PBMC obtained from healthy donors provides a mixed population of lymphocyte subtypes and mononuclear cells that produce a spectrum of interleukins and cytokines in response to many classes of physiological stimulators. Adherent mononuclear cells from PBMC provides an enriched source of normal monocytes for selective studies of cytokine production by activated cells.
An initial dilution series of test compound in DMSO or ethanol is prepared, with a subsequent dilution into RPMI-10% FBS media (containing 2 mM L-glutamine, 10 mM HEPES, 50 U and 50 ug/ml pen/strep) respectively to yield drugs at 4× the final test concentration containing 0.4% DMSO or 0.4% ethanol. The final concentration of DMSO is 0.1% for all drug dilutions. A concentration titration which brackets the apparent Ki for a test compound determined in an ICE inhibition assay is generally used for the primary compound screen.
Generally 5-6 compound dilutions are tested and the cellular component of the assay is performed in duplicate, with duplicate ELISA determinations on each cell culture supernatant.
Buffy coat cells isolated from one pint human blood (yielding 40-45 ml final volume plasma plus cells) are diluted with media to 80 ml and LeukoPREP separation tubes (Becton Dickinson) are each overlaid with 10 ml of cell suspension. After 15 min centrifugation at 1500-1800×g, the plasma/media layer is aspirated and then the mononuclear cell layer is collected with a Pasteur pipette and transferred to a 15 ml conical centrifuge tube (Corning). Media is added to bring the volume to 15 ml, gently mix the cells by inversion and centrifuge at 300×g for 15 min. The PBMC pellet is resuspended in a small volume of media, the cells are counted and adjusted to 6×10^6 cells/ml.
For the cellular assay, 1.0 ml of the cell suspension is added to each well of a 24-well flat bottom tissue culture plate (Corning), 0.5 ml test compound dilution and 0.5 ml LPS solution (Sigma #L-3012; 20 ng/ml solution prepared in complete RPMI media; final LPS concentration 5 ng/ml). The 0.5 ml additions of test compound and LPS are usually sufficient to mix the contents of the wells. Three control mixtures are run per experiment, with either LPS alone, solvent vehicle control, and/or additional media to adjust the final culture volume to 2.0 ml. The cell cultures are incubated for 16-18 hr at 37° C. in the presence of 5% CO2.
At the end of the incubation period, cells are harvested and transferred to 15 ml conical centrifuge tubes. After centrifugation for 10 min at 200×g, supernatants are harvested and transferred to 1.5 ml Eppendorf tubes. It may be noted that the cell pellet may be utilized for a biochemical evaluation of pre-IL-1β and/or mature IL-1β content in cytosol extracts by Western blotting or ELISA with pre-IL-1β specific antisera.
PBMC are isolated and prepared as described above. Media (1.0 ml) is first added to wells followed by 0.5 ml of the PBMC suspension. After a one hour incubation, plates are gently shaken and nonadherent cells aspirated from each well. Wells are then gently washed three times with 1.0 ml of media and final resuspended in 1.0 ml media. The enrichment for adherent cells generally yields 2.5-3.0×10^5 cells per well. The addition of test compounds, LPS, cell incubation conditions and processing of supernatants proceeds as described above.
Quantikine kits (R&D Systems) may be used for the measurement of mature IL-1β. Assays are performed according to the manufacturer's directions. Mature IL-1β levels of about 1-3 ng/ml in both PBMC and adherent mononuclear cell positive controls are observed. […]

[2] = substrate Suc-YVAD-pNA 80 μM, 37° C., pH 7.5

Structure (SMILES)	Ki (Caspase-1; [2]) [nM]	IC50 [1] [nM]	Ki (Caspase-1) [nM]
COc1cccc(Oc2ccc(OC)cc2C(=O)N[C@H](C(=O)N2CCC[C@H]2C(=O)N[C@H](C=O)CC(=O)O)C(C)C)c1 [Example 5aw]	< 10	1000 to 2000	
Cc1ccc2ccccc2c1C(=O)N[C@H](C(=O)N1CCC[C@H]1C(=O)N[C@H](C=O)CC(=O)O)C(C)C [Example 5g]	10 to 1000	1000 to 2000	
CCCc1ccc(-c2ccc(C(=O)N[C@H](C(=O)N3CCC[C@H]3C(=O)N[C@H](C=O)CC(=O)O)C(C)C)cc2)cc1 [Example 5bd]	< 10	1000 to 2000	
CC(C)[C@H](NC(=O)c1ccc(C(C)(C)C)cc1)C(=O)N1CCC[C@H]1C(=O)N[C@H](C=O)CC(=O)O [Example 5am]	< 10	> 2000	
CC(C)[C@H](NC(=O)c1ccc2ncsc2c1)C(=O)N1CCC[C@H]1C(=O)N[C@H](C=O)CC(=O)O [Example 5as]	< 10	> 2000	
CC(C)[C@H](NC(=O)c1ccccc1)C(=O)N1CC[C@H](C)[C@H]1C(=O)N[C@H](C=O)CC(=O)O [Example 26a]	< 10	1000 to 2000	
CC(C)[C@H](N)C(=O)N1CC(c2ccccc2)[C@H]1C(=O)N[C@H](C=O)CC(=O)O (stereo partly shown) [Example 24b]	> 1000	> 2000	
CC(=O)N1CCN(C(=O)[C@@H](NC(=O)c2nccc3ccccc23)C(C)C)[C@H](C(=O)N[C@H](C=O)CC(=O)O)C1 [Example 17e]	10 to 1000	500 to 1000	
CC(C)[C@H](NC(=O)c1csc(C2COc3ccccc3O2)n1)C(=O)N1CCC[C@H]1C(=O)N[C@H](C=O)CC(=O)O (stereo partly shown) [Example 5aq]	10 to 1000	> 2000	
CC(C)[C@H](NC(=O)c1ccccc1-c1ccc(C(F)(F)F)cc1)C(=O)N1CCC[C@H]1C(=O)N[C@H](C=O)CC(=O)O [Example 5ba]	< 10	1000 to 2000	
CC(C)[C@H](NC(=O)c1ccc(N)c(Cl)c1)C(=O)N1CCNC[C@H]1C(=O)N[C@H](C=O)CC(=O)O [Example 15e]	10 to 1000	> 2000	
COc1c(Cl)cc(C(=O)N[C@H](C(=O)N2CCN(C(C)=O)C[C@H]2C(=O)N[C@H](C=O)CC(=O)O)C(C)C)cc1Cl [Example 17c]	< 10	> 2000	
COc1c(Cl)cc(C(=O)N[C@H](C(=O)N2CCC[C@H]2C(=O)N[C@H](C=O)CC(=O)O)C(C)C)cc1Cl [Example 5al]	< 10	> 2000	
CC(=O)N1CCN(C(=O)[C@@H](NC(=O)c2ccc(N)c(Cl)c2)C(C)C)[C@H](C(=O)N[C@H](C=O)CC(=O)O)C1 [Example 17d]	10 to 1000	> 2000	
Cc1cc(C(=O)N[C@H](C(=O)N2CC[C@H](C)[C@H]2C(=O)N[C@H](C=O)CC(=O)O)C(C)C)cc(C)c1O [Example 26b]	< 10	500 to 1000	
CC(C)Cc1ccc(C(C)C(=O)N[C@H](C(=O)N2CCC[C@H]2C(=O)N[C@H](C=O)CC(=O)O)C(C)C)cc1 (stereo partly shown) [Example 5v]	10 to 1000	> 2000	10 to 1000
CS(=O)(=O)CC[C@H](NC(=O)c1ccc(N)c(Cl)c1)C(=O)N1CCC[C@H]1C(=O)N[C@H](C=O)CC(=O)O [Example 20j]	10 to 1000	> 2000	
Cc1oc(-c2ccccc2)cc1C(=O)N[C@H](C(=O)N1CCC[C@H]1C(=O)N[C@H](C=O)CC(=O)O)C(C)C [Example 5au]	10 to 1000	> 2000	
COc1c(Cl)cc(C(=O)N[C@H](C(=O)N2CCNC[C@H]2C(=O)N[C@H](C=O)CC(=O)O)C(C)C)cc1Cl [Example 15d]	10 to 1000	1000 to 2000	
CC(C)[C@H](NC(=O)c1nccc2ccccc12)C(=O)N1CCNC[C@H]1C(=O)N[C@H](C=O)CC(=O)O [Example 15f]	10 to 1000	> 2000	
C[C@H](NC(=O)[C@@H](NC(=O)c1ccccc1)C(C)(C)C)C(=O)N[C@H](C=O)CC(=O)O [Example 29m] (Bz-[Tle]-Ala-Asp-aldehyde)	< 10	500 to 1000	
C[C@H](NC(=O)c1nccc2ccccc12)C(=O)N1CCNC[C@H]1C(=O)N[C@H](C=O)CC(=O)O [Example 16a]	10 to 1000	< 500	
CCCc1c(C(=O)N[C@H](C(=O)N2CCC[C@H]2C(=O)N[C@H](C=O)CC(=O)O)C(C)C)cnn1-c1ccc(Cl)cc1 [Example 5at]	10 to 1000	> 2000	
Cc1nn(C)c2ncc(C(=O)N[C@H](C(=O)N3CCC[C@H]3C(=O)N[C@H](C=O)CC(=O)O)C(C)C)c(SC(C)C)c12 [Example 5ar]	< 10	> 2000	
CC(C)[C@H](NC(=O)c1nccc2ccccc12)C(=O)N1CCN(C)C[C@H]1C(=O)N[C@H](C=O)CC(=O)O [Example 17b]	10 to 1000	1000 to 2000	
CCCN(CCC)S(=O)(=O)c1ccc(C(=O)N[C@H](C(=O)N2CCC[C@H]2C(=O)N[C@H](C=O)CC(=O)O)C(C)C)cc1 [Example 5ao]	10 to 1000	> 2000	
CC(C)[C@H](NC(=O)c1ccc(CSc2ccccn2)o1)C(=O)N1CCC[C@H]1C(=O)N[C@H](C=O)CC(=O)O [Example 5av]	10 to 1000	> 2000	
